From patent US20200404919A1, “USE OF HETEROARYL-TRIAZOLE AND HETEROARYL-TETRAZOLE COMPOUNDS AS PESTICIDES IN PLANT PROTECTION” (Bayer Aktiengesellschaft, priority 2018, published 2020)

Experiments:
Type in all cases: in vivo
Diabrotica balteata = Diabrotica balteata - spray test; details: 168 h, 160 μg/well, germinated wheat seeds, larvae, after 7 days, read-out: efficacy in %
How it was run: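 Efficacy (%) read 7 days after infesting treated seedlings with 10-20 banded cucumber beetle larvae, 100% meaning growth as in uninfected untreated control and 0% no growth. Test solutions in water containing 1000 ppm emulsifier were sprayed onto wheat seeds germinated for 1 day on agar.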

Nezara viridula = Nezara viridula - spray test 1; details: in Hordeum vulgare, 96 h, read-out: mortality in %
How it was run: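 Percent kill of Nezara viridula larvae was read 4 days after spraying infested barley (Hordeum vulgare). The spray was the compound concentrate diluted in 1000 ppm emulsifier-containing water.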

Tetranychus urticae = Tetranychus urticae - spray test OP-resistant; details: foliar, 144 h, French bean leaf disks, all instars, after 6 days
Procedure: Tetranychus urticae—Spray Test OP-Resistant
To produce a suitable preparation of active compound, 1 part by weight of active compound is mixed with the stated amount of solvents and is diluted with water, containing an emulsifier concentration of 1000 ppm, to the desired concentration. Further test concentrations are prepared by dilution with emulsifier containing water.
French bean (Phaseolus vulgaris) leaf disks infected with all instars of the two spotted spidermite (Tetranychus urticae), are sprayed with a preparation of the active ingredient of the desired concentration.
After 6 days mortality in % is determined. 100% means all spider mites have been killed and 0% means none of the spider mites have been killed.

Nilaparvata lugens = Nilaparvata lugens - spray test 1; details: in Oryza sativa, 96 h, read-out: mortality in %, 500 g/ha, rice plants, after 4 days
How it was run: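 Mortality (%) was scored 4 days after infesting treated plants with brown planthopper, where 100% means all insects were killed. Compound was applied by spraying rice (Oryza sativa) at the desired concentration, diluted in water carrying 1000 ppm emulsifier.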

Myzus persicae = Myzus persicae - oral test; details: 120 h, read-out: mortality in %
How it was run: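 Scoring at day 5 gives percent mortality (0% none, 100% all killed) of a mixed aphid population that sucked compound preparation in sugar-supplemented IPL41 medium through a parafilm seal.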

Phaedon cochleariae = Phaedon cochleariae - spray test; details: in Brassica rapa, foliar, 168 h, read-out: mortality in %
How it was run: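 Mortality read 7 days after infestation; 100% means every larva dead, 0% none. Larvae placed on dried Chinese cabbage leaf disks previously sprayed with compound preparation diluted in emulsifier-containing water (1000 ppm).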

Spodoptera frugiperda = Spodoptera frugiperda - spray test; details: in Zea mays, 168 h, read-out: mortality in %
How it was run: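 Read-out: % larval mortality at day 7, where 100% means all killed and 0% none killed. Compound diluted in water with 1000 ppm emulsifier, sprayed onto Zea mays leaf sections; dried sections then infested with S. frugiperda larvae.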

Aphis gossypii = Aphis gossypii - oral test; details: 120 h, read-out: mortality in %
How it was run: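 Oral exposure: compound solution, prepared from acetone concentrate diluted in water, combined with sugar-supplemented IPL41 medium and sealed under parafilm for aphid feeding. Percent kill recorded at day 5.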

Meloidogyne incognita = Meloidogyne incognita - test; details: 336 h, salad seedlings in sand, after 14 days, read-out: nematicidal activity (percentage of gall formation)
Procedure: Meloidogyne incognita—Test
Solvent: 125.0 parts by weight of acetone
To produce a suitable preparation of active compound, 1 part by weight of active compound is mixed with the stated amount of solvent, and the concentrate is diluted with water to the desired concentration.
Vessels are filled with sand, a solution of the active ingredient, a suspension containing eggs and larvae of the southern root-knot nematode (Meloidogyne incognita) and salad seeds. The salad seeds germinate and the seedlings grow. Galls develop in the roots.
After 14 days the nematicidal activity is determined on the basis of the percentage of gall formation. 100% means no galls were found and 0% means the number of galls found on the roots of the treated plants was equal to that in untreated control plants.

[1] = system: Blattella germanica strain PAULINIA; experiment: Blattella germanica test (BLTTGE surface treatment & contact assay); details: 30 minutes exposure, 24 hours after contact, read-out: efficacy (mortality in percent)
Procedure: Blattella germanica Test (BLTTGE Surface Treatment & Contact Assay)
(§1) Solvent: Aceton+2000 ppm Rapeseed oil methyl ester (RME)
(§2) In order to produce a sufficient, active ingredient containing solution it is necessary to solve the test-compound in an acetone/RME solvent mixture. This solution is pipetted onto a glazed tile and after evaporation of the acetone, adult animals of the species Blattella germanica strain PAULINIA are placed onto the dried surface. The exposure time is 30 minutes.
(§3) Mortality in percent (%) is determined 24 hours after contact to the treated surface. 100% mortality means that all test-insects are dead, whereas 0% means that not a single insect died.

[2] = system: Aedes aegypti strain MONHEIM; experiment: Aedes test (AEDSAE surface treatment & contact assay); details: 30 minutes exposure, 24 hours after contact, read-out: efficacy (mortality in percent)
Procedure: Aedes Test (AEDSAE Surface Treatment & Contact Assay)
Solvent: Aceton+2000 ppm rapeseed oil methyl ester (RME)
as §2, with “mosquitoes” for “animals”, “Aedes aegypti” for “Blattella germanica”, “MONHEIM” for “PAULINIA”
as §3

[3] = system: Musca domestica strain WHO-N; experiment: Musca domestica test (MUSCDO surface treatment & contact assay); details: 30 minutes exposure, 24 hours after contact, read-out: efficacy (mortality in percent)
Procedure: Musca domestica Test (MUSCDO Surface Treatment & Contact Assay)
as §1
as §2, with “flies” for “animals”, “Musca domestica” for “Blattella germanica”, “WHO-N” for “PAULINIA”
as §3

Culex quinquefasciatus = experiment: Culex test (CULXFAS surface treatment & contact assay); details: 30 minutes exposure, 24 hours after contact, read-out: efficacy (mortality in percent)
Procedure: Culex Test (CULXFAS Surface Treatment & Contact Assay)
Solvent: Acetone+2000 ppm rapeseed oil methyl ester (RME)
as §2, with “mosquitoes” for “animals”, “Culex quinquefasciatus (Brown house mosquito)” for “Blattella germanica strain PAULINIA”
as §3

[4] = surface concentration 4 mg/m^2, glazed tile
[5] = surface concentration 20 mg/m^2, glazed tile

SMILES | pest or weed control at 160 µg/disc, 160 µg/well (Diabrotica balteata) | mortality at 500 g/ha (Nezara viridula) | mortality at 500 g/ha (Tetranychus urticae) | mortality at 500 g/ha (Nilaparvata lugens) | mortality at 20 ppm (Myzus persicae) | mortality at 500 g/ha (Phaedon cochleariae) | mortality at 500 g/ha (Spodoptera frugiperda) | mortality at 100 ppm (Aphis gossypii) | pest or weed control at 20 ppm (Meloidogyne incognita) | mortality at 4 mg/m2 [1, 4] | mortality at 20 mg/m2 [1, 5] | mortality at 4 mg/m2 [2, 4] | mortality at 20 mg/m2 [2, 5] | mortality at 4 mg/m2 [3, 4] | mortality at 20 mg/m2 [3, 5] | mortality at 4 mg/m2 (Culex quinquefasciatus; [4]) | mortality at 20 mg/m2 (Culex quinquefasciatus; [5])
CCN(C(=O)c1cc(Cl)cc(C(F)(F)F)c1)C(C)c1ncnn1-c1ncccn1 (stereo not shown) [Compound I-97, 3-chloro-N-ethyl-N-[1-(2-pyrimidin-2-yl-1,2,4-triazol-3-yl)ethyl]-5-(trifluoromethyl)benzamide] | 100% | 100% | 80% | 100% | 100% | 100% | 100% | 100% | – | – | – | – | – | – | – | – | –
C#CCN(C(=O)c1cc(Cl)cc(C(F)(F)F)c1)C(C)c1ncnn1-c1ncccn1 (stereo not shown) [Compound I-41, 3-chloro-N-prop-2-ynyl-N-[1-(2-pyrimidin-2-yl-1,2,4-triazol-3-yl)ethyl]-5-(trifluoromethyl)benzamide] | 100% | 100% | 90% | 100% | 100% | 100% | 100% | 100% | – | – | – | – | – | – | – | – | –
CC(c1ncnn1-c1ncccn1)N(CC1CC1)C(=O)c1cccc(C#N)c1 (stereo not shown) [Compound I-38, 3-cyano-N-(cyclopropylmethyl)-N-[1-(2-pyrimidin-2-yl-1,2,4-triazol-3-yl)ethyl]benzamide] | 100% | 100% | – | – | 100% | 100% | – | 100% | 100% | – | – | – | – | – | – | – | –
CC(c1ncnn1-c1ncccn1)N(CC1CC1)C(=O)c1cc(Cl)cc(Cl)c1 (stereo not shown) [Compound I-95] | 100% | 100% | – | 90% | 100% | 100% | 100% | 100% | 90% | – | – | – | – | – | – | – | –
CC(c1ncnn1-c1ncc(Cl)cn1)N(CC1CC1)C(=O)c1cc(Cl)cc(C(F)(F)F)c1 (stereo not shown) [Compound I-80, 3-chloro-N-[1-[2-(5-chloropyrimidin-2-yl)-1,2,4-triazol-3-yl]ethyl]-N-(cyclopropylmethyl)-5-(trifluoromethyl)benzamide] | 100% | 100% | – | – | 100% | 100% | 100% | 100% | 90% | – | – | – | – | – | – | – | –
CC(c1ncnn1-c1ncccn1)N(CC1CC1)C(=O)c1cncc(Br)c1 (stereo not shown) [Compound I-79] | 100% | 90% | – | 100% | – | 100% | – | – | 100% | – | – | – | – | – | – | – | –
CC(c1ncnn1-c1ncccn1)N(CC1CC1)C(=O)c1cccc(Cl)c1 (stereo not shown) [Compound I-108] | 100% | 100% | – | 100% | – | 100% | – | – | 90% | – | – | – | – | – | – | – | –
CC(c1ncnn1-c1ncccn1)N(CC1CC1)C(=O)c1cc(C(F)(F)F)cc(C(F)(F)F)c1 (stereo not shown) [Compound I-48, N-(cyclopropylmethyl)-N-[1-(2-pyrimidin-2-yl-1,2,4-triazol-3-yl)ethyl]-3,5-bis(trifluoromethyl)benzamide] | 100% | 100% | – | 100% | 100% | 100% | 100% | 100% | 100% | 80 to 100% | 80 to 100% | 80 to 100% | 80 to 100% | 80 to 100% | 80 to 100% | 80 to 100% | 80 to 100%
CC(c1ncnn1-c1ccncn1)N(CC1CC1)C(=O)c1cc(Cl)cc(C(F)(F)F)c1 (stereo not shown) [Compound I-110] | 100% | 100% | 95% | 100% | 100% | 100% | 100% | 100% | – | – | – | – | – | – | – | – | –
CC(c1ncnn1-c1ncccn1)N(CC1CC1)C(=O)c1cc(Cl)cc(SC(F)(F)F)c1 (stereo not shown) [Compound I-107, 3-chloro-N-(cyclopropylmethyl)-N-[1-(2-pyrimidin-2-yl-1,2,4-triazol-3-yl)ethyl]-5-(trifluoromethylsulfanyl)benzamide] | 100% | 100% | – | 100% | 100% | 100% | 100% | 100% | 90% | – | – | – | – | – | – | – | –
C[C@H](NC(=O)c1cc(Cl)cc(C(F)(F)F)c1)c1ncnn1-c1ncccc1Cl [Compound I-116] | 100% | 100% | 95% | 100% | 90% | 100% | 100% | 100% | – | – | – | – | – | – | – | – | –
CC(c1ncnn1-c1ncccn1)N(CC1CC1)C(=O)c1cccc(SC(F)(F)F)c1 (stereo not shown) [Compound I-83] | 100% | 100% | 100% | 100% | 100% | 100% | 83% | 100% | – | – | – | – | – | – | – | – | –
CC(c1ncnn1-c1cncnc1)N(CC1CC1)C(=O)c1cc(Cl)cc(C(F)(F)F)c1 (stereo not shown) [Compound I-112] | 100% | – | 90% | – | – | – | – | – | – | – | – | – | – | – | – | – | –
